Where two headings read alike, the source gives them in different places. A value given as a limit tells only on which side of the number the result lay.

Test [1] has as its system preclinical models. To be noted: cited from earlier work.
For test [2] the following is noted: more potent than doxorubicin; cited from earlier work.
The test system of test [3] is SK-OV-3 cells. The experiment in a line: In vitro cytotoxicity of free payloads (resazurin cell viability, 3 days). In kind it is cell-based. The settings on record: Homo sapiens, SK-OV-3, 72 h, read-out: IC50 SK-OV-3 (HER2 3+). As for the experimental part:
(§1) SK-OV-3, NCI-N87, JIMT-1 and MDA-MB-231 cells were plated in 96-well plates (5000 cells/well) in RPMI-1640 GlutaMAX (Invitrogen) supplemented with 10% fetal bovine serum (FBS) (Invitrogen, 150 μL/well) and incubated overnight in a humidified atmosphere at 37° C. and 5% CO2. Compounds 6a, 6b, 6c, 6d and 6e were added in triplo in a square root of 10-fold dilution series to obtain a final concentration ranging from 1 pM to 10 nM (for SK-OV-3 and NCI-N87) or 10 pM to 100 nM (for JIMT-1 and MDA-MB-231) and a final volume of 200 μL/well. The cells were incubated for 3 days in a humidified atmosphere at 37° C. and 5% CO2. The culture medium was replaced by 0.01 mg/mL resazurin (Sigma Aldrich) in RPMI-1640 GlutaMAX supplemented with 10% FBS (200 μL/well). After 4 hours in a humidified atmosphere at 37° C. and 5% CO2 the fluorescence was detected with a fluorescence plate reader (Infinite® M1000 Tecan) at 560 nm excitation and 590 nm emission. The relative fluorescent units (RFU) were normalized to cell viability percentage by setting wells without cells at 0% viability and wells with untreated cells at 100% viability. Viability was plotted using Graphpad prism software (see FIG. 20).

The subject of test [4] is MDA-MB-231 cells. Described as above. In kind it is cell-based. To be noted: for IC50: Homo sapiens, MDA-MB-231, 72 h, read-out: IC50 MDA-MB-231 (HER2−); for IC50 MDA-MB-231 (HER2−): free payload, 3 days incubation, 10 pM to 100 nM. As for the experimental part: as §1
The test system of test [5] is NCI-N87 cells. Described as above. To be noted: Homo sapiens, NCI-N87, 72 h, read-out: IC50 NCI-N87 (HER2 3+). In kind it is cell-based. As for the experimental part: as §1, with “Compounds 6a, 6b, 6c, 6d and 6e were added in triplo in a square root of 10-fold dilution series to obtain a final concentration ranging from 1 pM to 10 nM (for SK-OV-3 and NCI-N87) or 10 pM to 100 nM (for JIMT-1 and MDA-MB-231) and a final volume of 200 μL/well.” left out

The subject of test [6] is JIMT-1 cells. Described as above. In kind it is cell-based, human. To be noted: for IC50: Homo sapiens, JIMT-1, 72 h, read-out: IC50 JIMT-1 (HER2 1+); for IC50 JIMT-1 (HER2 1+): free payload, 3 days incubation, 10 pM to 100 nM. As to the method: as §1
Setting [7] is: free payload, 3 days incubation, 1 pM to 10 nM.

Regarding `COc1cccc2c1C(=O)c1c(O)c3c(c(O)c1C2=O)C[C@@](O)(C(=O)CO)C[C@@H]3O[C@H]1C[C@H]2[C@H](O[C@@H]3[C@@H](OC)OCCN32)[C@H](C)O1` [PNU-159,682], in test [1], the MED is recorded as 0.033 mg/kg. In addition, the “potency relative to doxorubicin” value in test [2] is on record as above 1000 ×.

Take `COc1cccc2c1C(=O)c1c(O)c3c(c(O)c1C2=O)C[C@@](O)(C(=O)CO)C[C@@H]3O[C@H]1C[C@H]2[C@H](O[C@@H]3[C@@H](OCc4ccc(N=[N+]=[N-])cc4)OCCN32)[C@H](C)O1` [Compound 6e]: the IC50 turned out to be 0.845 nM in test [3], 0.705 nM in test [4], 0.795 nM in test [5] and 0.52 nM in test [6].

On to `COc1cccc2c1C(=O)c1c(O)c3c(c(O)c1C2=O)C[C@@](O)(C(=O)CO)C[C@@H]3O[C@H]1C[C@H]2[C@H](O[C@@H]3[C@@H](OC)OCCN32)[C@H](C)O1` [Compound 6a, reference compound], for which the IC50 in test [3] (setting [7]) is 0.028 nM; in test [5] (setting [7]) it was 0.085 nM. In test [4], the “IC50 MDA-MB-231 (HER2−)” value was “no accurate IC50 value could be calculated”. Besides, the “IC50 JIMT-1 (HER2 1+)” value in test [6] is recorded as “no accurate IC50 value could be calculated”.

On to `COc1cccc2c1C(=O)c1c(O)c3c(c(O)c1C2=O)C[C@@](O)(C(=O)CO)C[C@@H]3O[C@H]1C[C@H]2[C@H](O[C@@H]3[C@@H](OCCN=[N+]=[N-])OCCN32)[C@H](C)O1` [Compound 6b], for which the 50% inhibitory concentration (IC50) in test [3] was 0.099 nM. Also, the “IC50 MDA-MB-231 (HER2−)” value in test [4] is “no accurate IC50 value could be calculated”. For the same molecule, the “IC50 JIMT-1 (HER2 1+)” value in test [6] is “no accurate IC50 value could be calculated”.

Regarding `COc1cccc2c1C(=O)c1c(O)c3c(c(O)c1C2=O)C[C@@](O)(C(=O)CO)C[C@@H]3O[C@H]1C[C@H]2[C@H](O[C@@H]3[C@@H](OC(C)C)OCCN32)[C@H](C)O1` [Compound 6c], the IC50 is 0.187 nM in test [3], 0.174 nM in test [4], 0.416 nM in test [5] and 0.159 nM in test [6].

`COc1cccc2c1C(=O)c1c(O)c3c(c(O)c1C2=O)C[C@@](O)(C(=O)CO)C[C@@H]3O[C@H]1C[C@H]2[C@H](O[C@@H]3[C@@H](OCc4ccccc4)OCCN32)[C@H](C)O1` [Compound 6d]: the IC50 came to 0.217 nM in test [3], 0.169 nM in test [4], 0.339 nM in test [5] and 0.259 nM in test [6].

As usually defined, the IC50 is the point on the concentration scale where inhibition reaches its midpoint.
